From ChEMBL document CHEMBL3885881, “DrugMatrix”

Organism: Rattus norvegicus
Assay: DrugMatrix - Regimen: Daily Repeat
Type: toxicity, organism-based, Sprague-Dawley
Parameters: regimen Daily Repeat, gender Male, age 6-8 weeks
Details: in vivo, po, route oral GAVAGE, […]; for ABSOLUTE BASOPHIL / ABSOLUTE EOSINOPHIL / ABSOLUTE LYMPHOCYTE / ABSOLUTE MONOCYTE / ABSOLUTE SEGMENTED NEUTROPHIL / BASOPHIL / EOSINOPHIL / ERYTHROCYTE COUNT / HEMATOCRIT / HEMOGLOBIN / LEUKOCYTE COUNT / LYMPHOCYTE / MEAN CORPUSCULAR HEMOGLOBIN / MEAN CORPUSCULAR HEMOGLOBIN CONCENTRATION / MEAN CORPUSCULAR VOLUME / MONOCYTE / NEUTROPHIL / NUCLEATED RED BLOOD CELLS / PLATELET COUNT: tissue Blood; for ALANINE AMINOTRANSFERASE / ALBUMIN / ALKALINE PHOSPHATASE / ASPARTATE AMINOTRANSFERASE / BLOOD UREA NITROGEN / CARBON DIOXIDE / CHLORIDE / CHOLESTEROL / CREATINE PHOSPHOKINASE / CREATININE / GLUCOSE / LACTATE DEHYDROGENASE / LIPASE / PHOSPHORUS / POTASSIUM / SODIUM / TOTAL BILIRUBIN / TOTAL PROTEIN / URIC ACID: tissue Plasma
[1] = 30 mg/kg, 120 h, dose level Low, time 5 day
[2] = 2500 mg/kg, 72 h, dose level High, time 3 day
[3] = 2500 mg/kg, 120 h, dose level High, time 5 day

## COC1=CC(=O)C[C@@H](C)[C@]12Oc1c(Cl)c(OC)cc(OC)c1C2=O [GRISEOFULVIN]
[1]
  ABSOLUTE BASOPHIL: 0 CELLS/uL
  ABSOLUTE EOSINOPHIL: 0 CELLS/uL
  ABSOLUTE LYMPHOCYTE: 12913.33 CELLS/uL
  ABSOLUTE MONOCYTE: 48.67 CELLS/uL
  ABSOLUTE SEGMENTED NEUTROPHIL: 1938 CELLS/uL
  BASOPHIL: 0%
  EOSINOPHIL: 0%
  ERYTHROCYTE COUNT: 5.4 x10E6/uL
  HEMATOCRIT: 33.57%
  HEMOGLOBIN: 12.93 G/DL
  LEUKOCYTE COUNT: 14.9 x10E3/uL
  LYMPHOCYTE: 86.67%
  MEAN CORPUSCULAR HEMOGLOBIN: 23.93 pg
  MEAN CORPUSCULAR HEMOGLOBIN CONCENTRATION: 38.5 G/DL
  MEAN CORPUSCULAR VOLUME: 62.1 fL
  MONOCYTE: 0.33%
  NEUTROPHIL: 13%
  NUCLEATED RED BLOOD CELLS: 0 /100WBC
  PLATELET COUNT: 1179 x10E3/uL
  ALANINE AMINOTRANSFERASE: 63.67 u/L
  ALBUMIN: 3.87 G/DL
  ALKALINE PHOSPHATASE: 399.67 u/L
  ASPARTATE AMINOTRANSFERASE: 90.33 u/L
  BLOOD UREA NITROGEN: 15.33 mg/dL
  CARBON DIOXIDE: 28.33 mmol/L
  CHLORIDE: 101.67 MEQ/L
  CHOLESTEROL: 66.33 mg/dL
  CREATINE PHOSPHOKINASE: 384.67 u/L
  CREATININE: 0.2 mg/dL
  GLUCOSE: 154 mg/dL
  LACTATE DEHYDROGENASE: 329.33 u/L
  LIPASE: 10 u/L
  PHOSPHORUS: 11.63 mg/dL
  POTASSIUM: 6.32 MEQ/L
  SODIUM: 143 MEQ/L
  TOTAL BILIRUBIN: 0.2 mg/dL
  TOTAL PROTEIN: 5.5 G/DL
  URIC ACID: 1.43 mg/dL
[2]
  ABSOLUTE BASOPHIL: 0 CELLS/uL
  ABSOLUTE EOSINOPHIL: 109.33 CELLS/uL
  ABSOLUTE LYMPHOCYTE: 15660.67 CELLS/uL
  ABSOLUTE MONOCYTE: 63 CELLS/uL
  ABSOLUTE SEGMENTED NEUTROPHIL: 2167 CELLS/uL
  BASOPHIL: 0%
  EOSINOPHIL: 0.67%
  ERYTHROCYTE COUNT: 5.22 x10E6/uL
  HEMATOCRIT: 32.37%
  HEMOGLOBIN: 12.83 G/DL
  LEUKOCYTE COUNT: 18 x10E3/uL
  LYMPHOCYTE: 87%
  MEAN CORPUSCULAR HEMOGLOBIN: 24.6 pg
  MEAN CORPUSCULAR HEMOGLOBIN CONCENTRATION: 39.67 G/DL
  MEAN CORPUSCULAR VOLUME: 62.07 fL
  MONOCYTE: 0.33%
  NEUTROPHIL: 12%
  NUCLEATED RED BLOOD CELLS: 0 /100WBC
  PLATELET COUNT: 1162 x10E3/uL
  ALANINE AMINOTRANSFERASE: 57 u/L
  ALBUMIN: 3.87 G/DL
  ALKALINE PHOSPHATASE: 293.67 u/L
  ASPARTATE AMINOTRANSFERASE: 75.67 u/L
  BLOOD UREA NITROGEN: 14.33 mg/dL
  CARBON DIOXIDE: 33.67 mmol/L
  CHLORIDE: 98.33 MEQ/L
  CHOLESTEROL: 107.67 mg/dL
  CREATINE PHOSPHOKINASE: 199 u/L
  CREATININE: 0.17 mg/dL
  GLUCOSE: 144 mg/dL
  LACTATE DEHYDROGENASE: 120 u/L
  LIPASE: 11.67 u/L
  PHOSPHORUS: 12.17 mg/dL
  POTASSIUM: 6.74 MEQ/L
  SODIUM: 142.47 MEQ/L
  TOTAL BILIRUBIN: 0.2 mg/dL
  TOTAL PROTEIN: 5.83 G/DL
  URIC ACID: 1.47 mg/dL
[3]
  ABSOLUTE BASOPHIL: 0 CELLS/uL
  ABSOLUTE EOSINOPHIL: 34 CELLS/uL
  ABSOLUTE LYMPHOCYTE: 11701.67 CELLS/uL
  ABSOLUTE MONOCYTE: 201.67 CELLS/uL
  ABSOLUTE SEGMENTED NEUTROPHIL: 562.67 CELLS/uL
  BASOPHIL: 0%
  EOSINOPHIL: 0.33%
  ERYTHROCYTE COUNT: 5.46 x10E6/uL
  HEMATOCRIT: 34.03%
  HEMOGLOBIN: 13.2 G/DL
  LEUKOCYTE COUNT: 12.5 x10E3/uL
  LYMPHOCYTE: 93.67%
  MEAN CORPUSCULAR HEMOGLOBIN: 24.23 pg
  MEAN CORPUSCULAR HEMOGLOBIN CONCENTRATION: 38.8 G/DL
  MEAN CORPUSCULAR VOLUME: 62.4 fL
  MONOCYTE: 1.67%
  NEUTROPHIL: 4.33%
  NUCLEATED RED BLOOD CELLS: 0.33 /100WBC
  PLATELET COUNT: 1293.67 x10E3/uL
  ALANINE AMINOTRANSFERASE: 49.67 u/L
  ALBUMIN: 4.17 G/DL
  ALKALINE PHOSPHATASE: 316.33 u/L
  ASPARTATE AMINOTRANSFERASE: 89.33 u/L
  BLOOD UREA NITROGEN: 17.67 mg/dL
  CARBON DIOXIDE: 24 mmol/L
  CHLORIDE: 109 MEQ/L
  CHOLESTEROL: 95.67 mg/dL
  CREATINE PHOSPHOKINASE: 362.67 u/L
  CREATININE: 0.28 mg/dL
  GLUCOSE: 152.67 mg/dL
  LACTATE DEHYDROGENASE: 489 u/L
  LIPASE: 11.33 u/L
  PHOSPHORUS: 11.23 mg/dL
  POTASSIUM: 6.51 MEQ/L
  SODIUM: 150.77 MEQ/L
  TOTAL BILIRUBIN: 0.13 mg/dL
  TOTAL PROTEIN: 6.2 G/DL
  URIC ACID: 1.83 mg/dL
